Literature values in EP0324210A1 (UOP, priority 1988, dated 1989).

Settings: aqueous solution, 25°C

SMILES: O=C(O)CC(O)(CC(=O)O)C(=O)O [citric acid]
- acid dissociation constant pKa₃: 5.40
